The results in this text go back to patent US20240174611A1 (Rappta Therapeutics Oy, priority 2021, published 2024).

One assay has as its system LNCaP cells. Nature of the assay: LNCaP cell viability assay (MTS). It is filed as cell-based. The note with it: Homo sapiens, LNCaP, 48 h, LNCaP cell line, 48 hours treatment. The protocol:
LNCaP cell line was used for the cell viability assay. LNCaP cells were plated in 96-well plates at a density of 5000 cells per well. After 24 hours of plating, the cells were treated with increasing doses of compound 1-100 ranging from 1 μM to 80 μM. Relative cell numbers were analyzed after 48 hours using 3-(4,5-dimethylthiazol-2-yl)-5-(3-carboxymethoxyphenyl)-2-(4-sulfophenyl)-2H-tetrazolium (MTS) assay (Promega) according to the manufacturer's instructions.
The cell viability data was analyzed with GraphPad Prism software. The values were log transformed and analyzed with non-linear regression (curve-fit) using log(inhibitor) vs. response—variable slope (four parameters) and constraining the bottom to equal zero. Unless otherwise indicated, the GI50 values provided in Table 35 correspond to the LNCaP cell viability assays.
For `COC(=O)[C@@H]1Cc2ccccc2[C@@H]1NS(=O)(=O)c1ccc(OC(F)(F)F)cc1` (racemic) [Compound 4], the 50% growth inhibitory concentration (GI50) (usually the concentration that inhibits growth by half) was determined as 40.4 µM. As for `CN1CC[C@@H](NS(=O)(=O)c2ccc(OC(F)(F)F)cc2)[C@@H]1c1ccc(Cl)cc1` (racemic) [Compound 9], the GI50 stood at 51.5 µM. The GI50 values of the last two compounds are within 1.5-fold of each other. The same measure, in the same setting: with `CC(C)(C)OC(=O)N1CCC([C@@H]2C[C@H]2NS(=O)(=O)c2ccc(OC(F)(F)F)cc2)CC1` (racemic) [Compound 24] the figure was 16 µM; with `CC(C)C1N(Cc2ccccc2)CC12C[C@@H](O)[C@H](NS(=O)(=O)c1ccc(OC(F)(F)F)cc1)C2` (mixture of isomers) [Compound 31], 45 µM; with `O=S(=O)(N[C@@H]1CCN(C2CC2)[C@H]1c1ccc(F)c(F)c1)c1ccc(OC(F)(F)F)cc1` (racemic) [Compound 34], 33 µM.

Compound `O=S(=O)(N[C@@H]1C[C@H]1c1ccc(Cl)cc1)c1ccc(OC(F)(F)F)cc1` (racemic) [Compound 42, rac N-((1R,2S)-2-(4-chlorophenyl)cyclopropyl)-4-(trifluoromethoxy)benzenesulfonamide] gave a GI50 of 67.2 µM. With `O=S(=O)(N[C@@H]1CNC[C@@H]1c1ccc(Cl)c(Cl)c1)c1ccc(OC(F)(F)F)cc1` (racemic) [Compound 51, rac N-((3R,4R)-4-(3,4-dichlorophenyl)pyrrolidin-3-yl)-4-(trifluoromethoxy)benzenesulfonamide], growth was halved (GI50) at 10.4 µM. This GI50 lies about 6.5-fold lower than the previous one.

Take `O=S(=O)(N[C@@]1(c2ccc(Cl)cc2)CNC[C@@H]1F)c1ccc(OC(F)(F)F)cc1` (racemic) [Compound 79, N-((3S,4S)-3-(4-chlorophenyl)-4-fluoropyrrolidin-3-yl)-4-(trifluoromethoxy)benzenesulfonamide]: it took 55.8 µM to inhibit growth by half (GI50). This GI50 lies about 5.4-fold higher than the previous one. The compound `O=S(=O)(NC1CCCC1c1ccc(Cl)c(Cl)c1)c1ccc(OC(F)(F)F)cc1` (single isomer, unassigned) [Compound 43, N-(2-(3,4-dichlorophenyl)cyclopentyl)-4-(trifluoromethoxy)benzenesulfonamide] had a GI50 of 37.5 µM. `CC(C)(C)N1CCC(NS(=O)(=O)c2ccc(OC(F)(F)F)cc2)C1c1ccc(Cl)c(F)c1` (single isomer, unassigned; enantiomer 1) [Compound 37, trans N-(1-(tert-butyl)-2-(4-chloro-3-fluorophenyl)pyrrolidin-3-yl)-4-(trifluoromethoxy)benzene-sulfonamide enantiomer 1]: halving of growth (GI50) required 16 µM. As for `CC(=O)Nc1ccc(S(=O)(=O)N2CCC(NS(=O)(=O)c3ccc(OC(F)(F)F)cc3)CC2)cc1` [Compound 1], the GI50 was 38.1 µM. For `COc1ccc(Cl)cc1N1CCC(NS(=O)(=O)c2ccc(OC(F)(F)F)cc2)C1` (centres unmarked) [Compound 2, N-(1-(5-chloro-2-methoxyphenyl)pyrrolidin-3-yl)-4-(trifluoromethoxy)benzene-sulfonamide], halving of growth (GI50) required 67.4 µM. The same measure, in the same setting: with `O=S(=O)(NC1CCN(c2cccc(Br)c2)C1)c1ccc(OC(F)(F)F)cc1` (centres unmarked) [Compound 3] the figure was 77.1 µM; with `O=S(=O)(NC1CCCN(c2ccc(Cl)c(Cl)c2)C1)c1ccc(OC(F)(F)F)cc1` (centres unmarked) [Compound 5, N-(1-(3,4-dichlorophenyl)piperidin-3-yl)-4-(trifluoromethoxy)benzene-sulfonamide], 52.8 µM; with `O=S(=O)(NC1CCN(c2cccc(OC(F)(F)F)c2)C1)c1ccc(OC(F)(F)F)cc1` (centres unmarked) [Compound 6], 59.3 µM. Compound `O=S(=O)(NC1CCCCC1Oc1ccc(F)cc1)c1ccc(OC(F)(F)F)cc1` (centres unmarked) [Compound 7, N-(2-(4-fluorophenoxy)cyclohexyl)-4-(trifluoromethoxy)benzene-sulfonamide] came in with a GI50 of 65.9 µM.

The same assay, now with this note: LNCaP cell line, 48 hours treatment.
The compound `O=S(=O)(NC1CCCC1c1ccc(Cl)c(Cl)c1)c1ccc(OC(F)(F)F)cc1` (single isomer, unassigned) [Compound 44, N-(2-(3,4-dichlorophenyl)cyclopentyl)-4-(trifluoromethoxy)benzenesulfonamide] came in with a GI50 of 45.4 µM.
